The values below come from patent publication US8492395B2, “7-substituted quinazolinone compounds and compositions comprising the same” (Celgene Corporation, priority 2007, dated 2013).

For series [1], the system named is Namalwa AG4 cells. The series can be described thus: Cell proliferation assay (3H-thymidine incorporation). Format: cell-based. To be noted: one collective range stated for the tested compounds, read-out: IC50 values for inhibiting proliferation of Namalwa AG4 cells. The method, then:
5.48.3 Cell Proliferation Assay
Cell lines Namalwa, MUTZ-5, and UT-7 are obtained from the Deutsche Sammlung von Mikroorganismen und Zellkulturen GmbH (Braunschweig, Germany). The cell line KG-1 is obtained from the American Type Culture Collection (Manassas, Va., USA). Cell proliferation as indicated by ^3H-thymidine incorporation is measured in all cell lines as follows.
Cells are plated in 96-well plates at 6000 cells per well in media. The cells are pre-treated with compounds at about 100, 10, 1, 0.1, 0.01, 0.001, 0.0001 and 0 μM in a final concentration of about 0.25% DMSO in triplicate at 37° C. in a humidified incubator at 5% CO2 for 72 hours. One microcurie of 3H-thymidine (Amersham) is then added to each well, and cells are incubated again at 37° C. in a humidified incubator at 5% CO2 for 6 hours. The cells are harvested onto UniFilter GF/C filter plates (Perkin Elmer) using a cell harvester (Tomtec), and the plates are allowed to dry overnight. Microscint 20 (Packard) (25 μl/well) is added, and plates are analyzed in TopCount NXT (Packard). Each well is counted for one minute. Percent inhibition of cell proliferation is calculated by averaging all triplicates and normalizing to the DMSO control (0% inhibition). Each compound is tested in each cell line in three separate experiments. Final IC50s are calculated using non-linear regression, sigmoidal dose-response, constraining the top to 100% and bottom to 0%, allowing variable slope. (GraphPad Prism v3.02).
Abilities of certain compounds for inhibiting proliferation of Namalwa AG4 cells were determined using procedures substantially similar to those described in Section 5.48.3, above.

`Cc1nc2ccc(CN)cc2c(=O)n1C1CCC(=O)NC1=O.Cl` (stereo not shown) returned a melting point of 299 to 301 °C.

Take `Cc1nc2cc(CN)ccc2c(=O)n1C1CCC(=O)NC1=O.Cl` (stereo not shown): the melting point lay in the range of 313 to 315 °C.

`Cc1ccc(NC(=O)NCc2ccc3nc(C)n(C4CCC(=O)NC4=O)c(=O)c3c2)cc1Cl` (stereo not shown) [1-(3-chloro-4-methyl-phenyl)-3-[3-(2,6-dioxo-piperidin-3-yl)-2-methyl-4-oxo-3,4-dihydro-quinazolin-6-ylmethyl]-urea] gave a melting point of 186 to 188 °C. In series [1], the IC50 was 10 to 5500 nM.

The compound `Cc1nc2ccc(CNC(=O)Nc3ccc(Cl)cc3)cc2c(=O)n1C1CCC(=O)NC1=O` (stereo not shown) [1-(4-chloro-phenyl)-3-[3-(2,6-dioxo-piperidin-3-yl)-2-methyl-4-oxo-3,4-dihydro-quinazolin-6-ylmethyl]-urea] returned a melting point of 225 to 227 °C. Besides, the IC50 in series [1] fell in the range of 10 to 5500 nM.

`Cc1cccc(NC(=O)NCc2ccc3nc(C)n(C4CCC(=O)NC4=O)c(=O)c3c2)c1` (stereo not shown) [1-[3-(2,6-dioxo-piperidin-3-yl)-2-methyl-4-oxo-3,4-dihydro-quinazolin-6-ylmethyl]-3-m-tolyl-urea] gave a melting point of 200 to 202 °C. In series [1], the IC50 was in the range of 10 to 5500 nM.

`Cc1nc2ccc(CNC(=O)Cc3ccc(Cl)cc3)cc2c(=O)n1C1CCC(=O)NC1=O` (stereo not shown) [2-(4-chloro-phenyl)-N-[3-(2,6-dioxo-piperidin-3-yl)-2-methyl-4-oxo-3,4-dihydro-quinazolin-6-ylmethyl]-acetamide] displayed a melting point of 229.5 to 231.5 °C. Moreover, the IC50 in series [1] fell in the range of 10 to 5500 nM.

As to `Cc1nc2ccc(CNC(=O)c3ccc(Cl)c(Cl)c3)cc2c(=O)n1C1CCC(=O)NC1=O` (stereo not shown) [3,4-dichloro-N-[3-(2,6-dioxo-piperidin-3-yl)-2-methyl-4-oxo-3,4-dihydro-quinazolin-6-ylmethyl]-benzamide], the IC50 in series [1] was in the range of 10 to 5500 nM.

With `Cc1ccc2c(=O)n(C3CCC(=O)NC3=O)c(C)nc2c1` (stereo not shown) [3-(2,7-dimethyl-4-oxo-4H-quinazolin-3-yl)-piperidine-2,6-dione], the melting point is 305 °C (dec.).

Turning to `Cc1cccc2c(=O)n(C3CCC(=O)NC3=O)c(C)nc12` (stereo not shown) [3-(2,8-dimethyl-4-oxo-4H-quinazolin-3-yl)-piperidine-2,6-dione], the melting point lay within 296 to 298 °C.

Take `Cc1nc2c(C(F)(F)F)cccc2c(=O)n1C1CCC(=O)NC1=O` (stereo not shown) [3-(2-methyl-4-oxo-8-trifluoromethyl-4H-quinazolin-3-yl)-piperidine-2,6-dione]: the melting point is 351 to 353 °C.

As for `COc1cc2nc(C)n(C3CCC(=O)NC3=O)c(=O)c2cc1OC` (stereo not shown) [3-(6,7-dimethoxy-2-methyl-4-oxo-4H-quinazolin-3-yl)-piperidine-2,6-dione], the melting point was 325 °C (dec.).

Compound `Cc1nc2c(Br)cccc2c(=O)n1C1CCC(=O)NC1=O` (stereo not shown) [3-(8-bromo-2-methyl-4-oxo-4H-quinazolin-3-yl)-piperidine-2,6-dione] gave a melting point of 307 to 309 °C.

Consider `Cc1nc2c(O)cccc2c(=O)n1C1CCC(=O)NC1=O` (stereo not shown) [3-(8-hydroxy-2-methyl-4-oxo-4H-quinazolin-3-yl)-piperidine-2,6-dione], for which the melting point lay in the range of 266 to 268 °C.

As for `Cc1nc2ccc(CNC(=O)c3ccc(Cl)cc3)cc2c(=O)n1C1CCC(=O)NC1=O` (stereo not shown) [4-chloro-N-[3-(2,6-dioxo-piperidin-3-yl)-2-methyl-4-oxo-3,4-dihydro-quinazolin-6-ylmethyl]-benzamide], the melting point lay in the range of 267 to 269 °C.

In turn, `Cc1ccc2nc(C)n(C3CCC(=O)NC3=O)c(=O)c2c1` (stereo not shown) [Example 5.1, 3-(2,6-dimethyl-4-oxo-4H-quinazolin-3-yl)-piperidine-2,6-dione] displayed a melting point of 270 to 272 °C.

Turning to `Cc1nc2ccc(F)cc2c(=O)n1C1CCC(=O)NC1=O` (stereo not shown) [Example 5.3, 3-(6-fluoro-2-methyl-4-oxo-4H-quinazolin-3-yl)-piperidine-2,6-dione], the melting point lay in the range of 273 to 275 °C.

Take `Cc1nc2ccc(Cl)cc2c(=O)n1C1CCC(=O)NC1=O` (stereo not shown) [Example 5.4, 3-(6-chloro-2-methyl-4-oxo-4H-quinazolin-3-yl)-piperidine-2,6-dione]: the melting point was in the range of 276 to 278 °C.

Regarding `O=C1CCC(n2cnc3ccc(Cl)cc3c2=O)C(=O)N1` (stereo not shown) [Example 5.7, 3-(6-chloro-4-oxo-4H-quinazolin-3-yl)-piperidine-2,6-dione], the melting point was in the range of 302 to 305 °C.

The compound `Cc1ccc2ncn(C3CCC(=O)NC3=O)c(=O)c2c1` (stereo not shown) [Example 5.9, 3-(6-methyl-4-oxo-4H-quinazolin-3-yl)-piperidine-2,6-dione] yielded a melting point of 285 to 287 °C.

`Cc1nc2ccc(CNC(=O)OC(C)(C)C)cc2c(=O)n1C1CCC(=O)NC1=O` (stereo not shown) [Example 5.11, [3-(2,6-dioxo-piperidin-3-yl)-2-methyl-4-oxo-3,4-dihydro-quinazolin-6-ylmethyl]-carbamic acid tert-butyl ester] registered a melting point of 212.5 to 214.5 °C.

On to `Cc1nc2ccc(CNC(=O)N(C)C)cc2c(=O)n1C1CCC(=O)NC1=O` (stereo not shown) [Example 5.15, 3-[3-(2,6-dioxo-piperidin-3-yl)-2-methyl-4-oxo-3,4-dihydro-quinazolin-6-ylmethyl]-1,1-dimethyl-urea], for which the melting point is 264 to 268 °C.

With `Cc1nc2cc(C(F)(F)F)ccc2c(=O)n1C1CCC(=O)NC1=O` (stereo not shown) [Example 5.32, 3-(2-methyl-4-oxo-7-trifluoromethyl-4H-quinazolin-3-yl)-piperidine-2,6-dione], the melting point lay in the range of 277 to 279 °C.

`O=C1CCC(n2cnc3cc(F)ccc3c2=O)C(=O)N1` (stereo not shown) [Example 5.33, 3-(7-fluoro-4-oxo-4H-quinazolin-3-yl)-piperidine-2,6-dione]: the melting point lay within 296 to 298 °C.

With `Cc1ccc2c(=O)n(C3CCC(=O)NC3=O)cnc2c1` (stereo not shown) [Example 5.34, 3-(7-methyl-4-oxo-4H-quinazolin-3-yl)-piperidine-2,6-dione], the melting point lay within 313 to 315 °C.

Take `Cc1nc2cc(CNC(=O)OC(C)(C)C)ccc2c(=O)n1C1CCC(=O)NC1=O` (stereo not shown) [Example 5.36, [3-(2,6-dioxo-piperidin-3-yl)-2-methyl-4-oxo-3,4-dihydro-quinazolin-7-ylmethyl]-carbamic acid tert-butyl ester]: the melting point was 240 to 242 °C.

`Cc1nc2c(Cl)cccc2c(=O)n1C1CCC(=O)NC1=O` (stereo not shown) [Example 5.40, 3-(8-chloro-2-methyl-4-oxo-4H-quinazolin-3-yl)-piperidine-2,6-dione] gave a melting point of 290 to 292 °C.

In turn, `Cc1cccc2c(=O)n(C3CCC(=O)NC3=O)cnc12` (stereo not shown) [Example 5.44, 3-(8-methyl-4-oxo-4H-quinazolin-3-yl)-piperidine-2,6-dione] showed a melting point of 290 to 292 °C.

`Cc1nc2c(Cl)cc(Cl)cc2c(=O)n1C1CCC(=O)NC1=O` (stereo not shown) [Example 5.46, 3-(6,8-dichloro-2-methyl-4-oxo-4H-quinazolin-3-yl)-piperidine-2,6-dione] yielded a melting point of 238 to 240 °C.

The compound `Cc1nc2ccc(CNC(=O)c3cccc(C(F)(F)F)c3)cc2c(=O)n1C1CCC(=O)NC1=O` (stereo not shown) [N-[3-(2,6-dioxo-piperidin-3-yl)-2-methyl-4-oxo-3,4-dihydro-quinazolin-6-ylmethyl]-3-trifluoromethyl-benzamide] yielded a melting point of 220 to 222 °C. Besides, the IC50 in series [1] was in the range of 10 to 5500 nM.

As for `Cc1nc2ccc(CNC(=O)c3ccc(OC(F)(F)F)cc3)cc2c(=O)n1C1CCC(=O)NC1=O` (stereo not shown) [N-[3-(2,6-dioxo-piperidin-3-yl)-2-methyl-4-oxo-3,4-dihydro-quinazolin-6-ylmethyl]-4-trifluoromethoxy-benzamide], the melting point lay within 165 to 167 °C. For the same compound, in series [1], the IC50 is 10 to 5500 nM.

Consider `Cc1nc2ccc(CNC(=O)c3ccc(C(F)(F)F)cc3)cc2c(=O)n1C1CCC(=O)NC1=O` (stereo not shown) [N-[3-(2,6-dioxo-piperidin-3-yl)-2-methyl-4-oxo-3,4-dihydro-quinazolin-6-ylmethyl]-4-trifluoromethyl-benzamide], for which the melting point was 221 to 223 °C. The IC50 in series [1] was 10 to 5500 nM.

With `Cc1nc2ccc(CNC(=O)c3ccc(SC(F)(F)F)cc3)cc2c(=O)n1C1CCC(=O)NC1=O` (stereo not shown) [N-[3-(2,6-dioxo-piperidin-3-yl)-2-methyl-4-oxo-3,4-dihydro-quinazolin-6-ylmethyl]-4-trifluoromethyl-sulfanyl-benzamide], the melting point fell in the range of 169 to 171 °C. Moreover, the IC50 in series [1] is 10 to 5500 nM.

With `Cc1nc2ccc(CNC(=O)C3CC3)cc2c(=O)n1C1CCC(=O)NC1=O` (stereo not shown) [cyclopropanecarboxylic acid [3-(2,6-dioxo-piperidin-3-yl)-2-methyl-4-oxo-3,4-dihydro-quinazolin-6-ylmethyl]-amide], the melting point was in the range of 281 to 283 °C.

As for `CCCCCCC(=O)NCc1ccc2nc(C)n(C3CCC(=O)NC3=O)c(=O)c2c1` (stereo not shown) [heptanoic acid [3-(2,6-dioxo-piperidin-3-yl)-2-methyl-4-oxo-3,4-dihydro-quinazolin-6-ylmethyl]-amide], the melting point lay within 223 to 225 °C. The IC50 in series [1] lay within 10 to 5500 nM.
